According to the METLIN SMRT retention time set (Domingo-Almenara et al. 2019):

Assay: gradient 5% acetonitrile 3 min, to 50% in 2 min, to 85% in 15 min, held 3 min, 100 µL/min
Details: column: Zorbax Extend-C18 2.1 x 50 mm; eluents: water / acetonitrile, 0.1% formic acid
Outline: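 Retention times come from adduct peaks that were picked computationally and then checked by hand. The standards, pure and pooled in mixtures of ~100 molecules, were run on a Zorbax Extend-C18 column (2.1 × 50 mm, 1.8 μm) at 100 μL/min with water and acetonitrile, each with 0.1% formic acid. Detection was by quadrupole time-of-flight mass spectrometry in positive and negative ionization mode, with a dead volume of 40 μL and a dwell volume of 900 μL.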

Compound	RP-LC retention time
COCCN1CC2(CCCC2)N(Cc2ccc(C(C)C)cc2)CC1=O	690 s
O=c1c2scc(-c3ccc(F)cc3)c2ncn1Cc1cc(=O)n2ccccc2n1	810 s
CCCNC(=O)c1cc(-c2ccc(F)cc2)cn1CC	925 s
O=S(=O)(NCC1CCN(Cc2ccc(Cl)cc2)CC1)c1ccc2c(c1)-c1oncc1CO2	708 s
COc1ccc(N2CCN(S(=O)(=O)c3cc(-c4cnn5c(C)cc(C)nc45)ccc3C)CC2)cc1	1170 s
Cc1ccc(CNC(=O)c2ccc3c(c2)nc2n3CCCCC2)o1	619 s
CC(C)N1C(=O)C(C)(C(=O)Nc2ccc(F)cc2F)Oc2cccnc21 (stereo unspecified)	989 s
CC(=O)Nc1nnc(SCc2cc(=O)c(OC(=O)c3ccccc3Cl)co2)s1	699 s
COc1ccc(NS(=O)(=O)c2cc3n(c2)CCN(CC(C)C)C3=O)cc1	745 s
CC(C)Cn1c(=O)c2cc(C(=O)NCCC3CCN(C(C)C)CC3)nn2c2ccccc21	694 s
Cc1ccc(-n2c(=O)c3sccc3n(Cc3nc(-c4ccc(Br)cc4)no3)c2=O)cc1	1110 s
Cc1nc2cc(-c3noc(Cc4cccc(C(F)(F)F)c4)n3)ccc2o1	1080 s
COc1ccccc1C(=O)N1CCCC(COc2ccc(C(=O)NC3CC3)cc2)C1 (stereo unspecified)	785 s
CN(C(=O)CN1C(=O)NC2(CCC(C(C)(C)C)CC2)C1=O)c1ccccc1 (stereo unspecified)	979 s
CCCn1c(=O)c2c(C(=O)NCc3ccc(Cl)cc3)cc(=O)n(CCC)c2n(C)c1=O	1060 s
COc1ccc(C(=O)N2CCc3cc(-c4csc(C)n4)ccc32)cc1F	951 s
CCN(Cc1ccccc1)C(=O)CN1C(=O)CCc2cc(Br)ccc21	1000 s
CCCNC(=O)C1CCCN(c2ccc(SCC(=O)Nc3ccc(C(F)(F)F)cc3)nn2)C1 (stereo unspecified)	690 s
COc1ccc(OC)c(NC(=O)NC2CCN(c3nc4ccccc4n(C)c3=O)CC2)c1	886 s
COc1ccc(/C=C/c2nc(C#N)c(NCCCN(C)C)o2)cc1OC	629 s
CC(NCC(O)COCCOc1ccc(F)cc1)c1ccccc1 (stereo unspecified)	595 s

Compound	RP-LC retention time
CCOC(=O)c1c(C)[nH]c(CCC(=O)NC(C)C)c1C	729 s
Cc1ccccc1NS(=O)(=O)c1cc(-c2cc(C(F)(F)F)on2)sc1C	1180 s
Cc1ccc(CNC(=O)C2CCN(S(=O)(=O)c3cc(-c4noc(C)n4)sc3C)CC2)o1	906 s
COc1ccc(-n2nc(SCC(=O)Nc3cc(F)ccc3F)ccc2=O)cc1	756 s
Cc1ccc(-c2cc3c4nnc(SCC(=O)NC5CCCCC5)n4ccn3n2)cc1C	978 s
CCOc1ccc(N2C=C(C(=O)OC)S(=O)(=O)c3ccc(F)cc32)cc1	856 s
COc1ccc(NC(=O)c2c(-c3c(F)cccc3Cl)noc2C)cc1[N+](=O)[O-]	992 s
O=C(CN1CCC(c2nc(-c3cccs3)no2)CC1)Nc1ccccc1C(F)(F)F	753 s
Cc1ccc(C)c(-c2nnc(NC(=O)c3ccccc3[N+](=O)[O-])o2)c1	798 s
Cc1ccccc1CNC(=O)C1(C)CCCN(C(=O)Nc2ccc(Br)cc2F)C1 (stereo unspecified)	869 s
COC[C@@H]1CN(S(=O)(=O)c2ccc(C#N)cc2)C[C@H]1c1ccncc1	746 s
CCc1ccccc1NC(=O)N1C[C@H](c2nc(-c3ccccc3)no2)[C@@H](C)C1	1040 s
O=C(NCc1ccc2c(c1)OCCCO2)c1cccs1	791 s
CC1CCN(S(=O)(=O)c2ccc3nn(Cc4cc(F)cc(F)c4)c(=O)n3c2)CC1	1040 s
O=S(=O)(c1ccc(N2CCN(c3ccccn3)CC2)nn1)C1CCCCC1	608 s
Cc1nc(-c2cc(S(=O)(=O)N3CCN(c4cccc(C)c4C)CC3)c(C)s2)cs1	1370 s
COC(=O)C1=CN(c2ccccc2C)c2ccccc2S1(=O)=O	848 s
O=S(=O)(c1ccc(Cl)c(-c2nnc(-c3ccccc3)o2)c1)N1CCSCC1	1070 s
O=C(O)c1cn(-c2cccc(Br)c2)nn1	723 s
O=C(CN1CCc2[nH]c3c(F)ccc(F)c3c(=O)c2C1)Nc1ccccc1Cl	953 s
CCc1ccc(CNC(=O)C2CCCN(c3nc4c(s3)c(C)nn4-c3ccc(Cl)cc3)C2)cc1 (stereo unspecified)	1380 s

Now from value to compound:

RP-LC retention time	Compound
572 s	COc1cccc(CC(=O)N2CCc3nc[nH]c3C2)c1
589 s	CCOC(=O)N1CCN(CC(O)COc2ccc(Cl)cc2Cl)CC1 (stereo unspecified)
810 s	CCOc1ccccc1NC(=O)N1CCC2(CC1)NC(=O)c1ccccc1O2
1120 s	CCOC(=O)c1nc(N2CCN(c3cc(C)ccc3C)CC2)c2ccccc2n1
575 s	CCC(=O)NCc1nc2c(n1C)CN(S(=O)(=O)c1ccc(F)c(C)c1)CC2
1130 s	Cc1ccc(-c2cn3c(CC(=O)N4CCN(c5cc(Cl)ccc5C)CC4)csc3n2)cc1C
891 s	CC(=O)N1CCc2cc(S(=O)(=O)C(C)CC(=O)N3CCN(c4cccc(Cl)c4)CC3)ccc21 (stereo unspecified)
575 s	CCN1CCN(c2nc(-c3cccc(C)c3)nnc2C)CC1
595 s	CCCNc1cc(N2CCC(CCC(=O)NCC)CC2)ncn1
667 s	CCC(C)NC(=O)C1CCN(Cc2c(C)n(CC)c3ccccc23)CC1 (stereo unspecified)
859 s	Cc1nc(OCC(=O)Nc2ccc(Cl)c(Cl)c2)c2ccccc2n1
735 s	CC(=O)N1CCc2cc(N3CC(C(=O)Nc4ccc(Cl)cc4C)CC3=O)ccc21 (stereo unspecified)
847 s	CCOC(=O)c1cc(S(=O)(=O)N2CCCC2C(=O)Nc2cccc(C)n2)cn1C (stereo unspecified)
707 s	CC(Oc1cccc(Cl)c1)C(=O)N1CCCN(c2cc(=O)n(C)c(=O)n2C)CC1 (stereo unspecified)
720 s	CCOc1ccc(NC(=O)C2(CC)CCCCC(=O)N2)cc1 (stereo unspecified)
633 s	CCc1ccc2[nH]c3c(c(=O)c2c1)CN(CC(=O)NCc1ccccc1Cl)CC3
686 s	COCCNC(=O)C1CCCN(C(=O)c2cc(C)cc(C)c2)C1 (stereo unspecified)
587 s	CN1CCN(CCCNC(=O)CN2C(=O)CCn3nc(-c4cn(C)c5ccccc45)cc32)CC1
608 s	O=C(C1CCCO1)N1CCn2c(nnc2-c2ccccc2)C1 (stereo unspecified)
773 s	COc1ccccc1CNC(=O)CN1CCN(Cc2ccccc2)C1=O
726 s	Cc1ccccc1S(=O)(=O)N1CCC(CCC(=O)NC2CCS(=O)(=O)C2)CC1 (stereo unspecified)
731 s	CCOc1ccc(S(=O)(=O)NCCn2nc(C)cc2C)cc1F
676 s	CCn1ccc2cc(S(=O)(=O)N3CCCC(C(=O)NCCCN4CCCCC4)C3)ccc21 (stereo unspecified)
620 s	CCOc1ccccc1CN1C[C@@H](CO)[C@H](c2ccncc2)C1
